Results taken from patent US6017911A, “Pyridonecarboxylic acid derivatives and intermediates for the synthesis thereof” (Dainippon Pharmaceutical Co., Ltd., priority 1996, dated 2000).
Values after ≈ are worked out from the molar mass of the structure shown. Like-named read-outs stand apart in the source and are kept apart here.

What was measured:
[1] = tested on: Staphylococcus aureus 50774; experiment: In vitro antibacterial activity (MIC), Staphylococcus aureus 50774; assay type: cell-based
[2] = tested on: Staphylococcus aureus MS16405; experiment: In vitro antibacterial activity (MIC), Staphylococcus aureus MS16405; assay type: cell-based
[3] = tested on: Escherichia coli NIHJ JC-2; experiment: In vitro antibacterial activity (MIC), Escherichia coli NIHJ JC-2; assay type: cell-based; details: NIHJJC2, read-out: Minimum inhibitory concentration (MIC)
[4] = tested on: Pseudomonas aeruginosa No 12; experiment: In vitro antibacterial activity (MIC), Pseudomonas aeruginosa No 12; assay type: cell-based; details: NO12, read-out: Minimum inhibitory concentration (MIC)
[5] = tested on: Staphylococcus aureus 50774; experiment: Effect on systemic infection in mice; assay type: in vivo, mice (male Std-ddy strain); details: 168 h; Staphylococcus aureus 50774 i.p. infection; oral, twice (immediately and 6 h after infection); survival 7 days after infection
Procedure: The effects (ED50; mg/kg) on systemic infection in mice were determined as follows: Male Std-ddy strain mice (weighing about 20 g) were infected with each of the pathogenic bacteria shown in Table 2 by administering 5×10^3 viable cells intraperitoneally to each mouse. Then, a suspension of each test compound in 0.4% carboxymethylcellulose was orally administered twice, i.e., immediately after infection and 6 hours after infection. Seven days after infection, the ED50 value was calculated from the survival rate of each mouse group by probit analysis.
As a reference compound, there was used enoxacin [1-ethyl-6-fluoro-1,4-dihydro-4-oxo-7-(1-piperazinyl-1,8-naphthyridine-3-carboxylic acid; hereinafter abbreviated as ENX] that is an excellent antibacterial agent currently on the market.
The test compounds shown in the following Tables 1 and 2 are identified by the respective numbers of the Examples which will be given later.

[6] = Staphylococcus aureus 50774, read-out: Minimum inhibitory concentration (MIC)
[7] = Staphylococcus aureus MS16405, read-out: Minimum inhibitory concentration (MIC)

SMILES | MIC [1, 6] | MIC [2, 7] | MIC [3] | MIC [4] | ED50 [5] | MIC ([1]; Staphylococcus aureus, 50774, read-out: Minimum inhibitory concentration (MIC)) | MIC ([2]; Staphylococcus aureus, MS16405, read-out: Minimum inhibitory concentration (MIC))
N[C@H]1CN(c2c(F)cc3c(=O)c(C(=O)O)cn(C4CC4)c3c2Cl)[C@@H]2CCO[C@@H]21 (relative stereo) [Example 15] | 0.025 µg/mL (≈ 0.0613 µM) | 0.78 µg/mL (≈ 1.91 µM) | 0.013 µg/mL (≈ 0.0319 µM) | 0.78 µg/mL (≈ 1.91 µM) | 1.12 mg/kg |  | 
CCn1cc(C(=O)O)c(=O)c2cc(F)c(N3CCNCC3)nc21 [ENX, reference compound] |  |  | 0.05 µg/mL (≈ 0.156 µM) | 0.78 µg/mL (≈ 2.44 µM) | 9.89 mg/kg | 0.39 µg/mL (≈ 1.22 µM) | 100 µg/mL (≈ 312 µM)

Second part, led by results:

MIC [1, 6] | MIC [2, 7] | MIC [3] | MIC [4] | SMILES | ED50 [5] | MIC ([1]; Staphylococcus aureus, 50774, read-out: Minimum inhibitory concentration (MIC)) | MIC ([2]; Staphylococcus aureus, MS16405, read-out: Minimum inhibitory concentration (MIC))
0.006 µg/mL (≈ 0.0144 µM) | 1.56 µg/mL (≈ 3.74 µM) | 0.1 µg/mL (≈ 0.24 µM) | 1.56 µg/mL (≈ 3.74 µM) | COc1c(N2C[C@@H](N)[C@H]3OCC[C@H]32)c(F)c(C)c2c(=O)c(C(=O)O)cn(C3CC3)c12 (relative stereo) [Example 16] | 0.78 mg/kg |  | 
0.025 µg/mL (≈ 0.0639 µM) | 1.56 µg/mL (≈ 3.99 µM) | 0.006 µg/mL (≈ 0.0153 µM) | 0.39 µg/mL (≈ 0.996 µM) | N[C@H]1CN(c2c(F)cc3c(=O)c(C(=O)O)cn(C4CC4)c3c2F)[C@@H]2CCO[C@@H]21 (relative stereo) [Example 18] | 0.928 mg/kg |  | 
0.013 µg/mL (≈ 0.0311 µM) | 0.78 µg/mL (≈ 1.87 µM) | 0.1 µg/mL (≈ 0.24 µM) | 1.56 µg/mL (≈ 3.74 µM) | COc1c(N2C[C@@H](N)[C@H]3OCCC[C@H]32)c(F)cc2c(=O)c(C(=O)O)cn(C3CC3)c12 (relative stereo) [Example 19] | 0.928 mg/kg |  | 
